Laboratory results: patent publication US8772029B2, “Modulation of oocyte meiotic progression and oocyte activation” (Northwestern University, priority 2011, dated 2014)
Entries after “also recorded” stand apart in the source; their conditions may differ.

Columns and labels:
[1] = tested on: CCNB1; test: Western blot for CCNB1 in oocytes; type: cell-based, mouse; conditions: oocytes cultured with 10 μM TPEN during the MI-MII transition
Procedure: Western blotting was performed essentially as previously described (Bernhardt et al., 2010). Briefly, 15 to 50 cumulus-denuded oocytes were transferred in a minimal amount of medium to microcentrifuge tubes and immediately lysed in 8 μL of 1x SDSPAGE Sample Buffer (Laemmli, 1970). SDS-PAGE gels were run using the Invitrogen NuPAGE system and transferred to Immobilon-P PVDF membranes (Millipore, Billerica, MA). Blocking and antibody incubations were in 2% w/v ECL Advanced Blocking Reagent (Amersham) in TBS-T (20mM Tris, pH7.4, 137mM NaC1, 0.1% Tween20 v/v). Anti-CCNB1antibody was diluted 1:500, anti-FBXO43 was used at 1:1000 dilution, and anti-tubulin antibody was used at 1:10,000. HRP-conjugated secondary antibodies were diluted 1:10,000. Detection was performed using Amersham ECL Advanced detection reagent. BIOMAX MR films (Kodak, Rochester, NY) were exposed and developed, or an Alpha-Innotech (San Learndo, CA) MultiImage II system was used.

[2] = tested on: MII eggs; test: Activation of in vivo ovulated MII eggs (SrCl2, TPEN, ZnPT pre-treatment)
Procedure: Ovulated MII eggs were collected as described above. Eggs were transferred to KSOM medium with or without 10 μM ZnPT (1:1000 dilution of a 10 mM stock in DMSO) for exactly 5 minutes. Eggs were then washed in KSOM and allowed to recover for 10-15 minutes prior to activation. For SrCl2 activation, eggs were transferred to drops of calcium-free KSOM containing 10 mM SrCl2 for 2 hours, followed by 4 additional hours of culture in calcium-containing KSOM without SrCl2. TPEN activation was performed as previously described (Kim et al., 2011); eggs were cultured for 6 hours in KSOM containing 10 μM TPEN. Unactivated controls were cultured in KSOM for the same 6 hour time period to assess levels of spontaneous parthenogenesis.
MII eggs were treated with the ionophore zinc pyrithione (ZnPT) for 5 minutes to increase intracellular zinc. Following a 10-15 minute recovery period, eggs were then treated with activating agents SrCl2 or TPEN.

[3] = tested on: GV oocytes; test: TPEN treatment of PDE-inhibitor arrested GV oocytes; type: cell-based
Text: In certain embodiments, zinc modulation is useful for overcoming earlier meiotic arrests. Normally, treatment of GV stage oocytes with broad-spectrum or PDE3-specific phosphodiesterase (PDE) inhibitors results in maintenance of GV arrest due to elevated cAMP levels. […] As such, limiting zinc availability could also be used to overcome GV arrest and allow progression through GVBD in clinical cases of GV arrest. The methods of the present invention are also useful as a secondary treatment for oocytes that remain GV arrested following conventional in vitro maturation, and could be of particular value for use in conjunction with in vitro follicle culture systems currently being developed for use in fertility preservation programs for patients undergoing fertility-threatening cancer treatments, in which methods for overcoming GV arrest are necessary (Xu et al 2006).

[4] = tested on: MII eggs; conditions: literature (Kim et al 2011, Suzuki et al 2010); cited from earlier work

c1ccc(CN(CCN(Cc2ccccn2)Cc2ccccn2)Cc2ccccn2)nc1 [TPEN, N,N,N′,N′-tetrakis(2-pyridylmethyl)ethylenediamine]
CCNB1 protein levels [1]: low
egg activation by TPEN after ZnPT pre-treatment ([2]; MII eggs, 10 μM ZnPT 5 minutes, then 10 μM TPEN 6 h): caused activation
egg activation (second polar body and PN or PN-like structures) ([2]; control MII eggs, by 6 hours post activation, 10 mM SrCl2 2 h or 10 μM TPEN 6 h): activated normally
progression to MII after transfer back to zinc replete medium ([3]; PDE-inhibitor arrested GV oocytes that resumed meiosis under TPEN): a proportion of these oocytes progress to MII
meiotic resumption of GV-arrested oocytes ([3]; oocytes held at GV stage with phosphodiesterase inhibitors, TPEN treatment): premature GV breakdown (GVBD) and meiotic progression; also recorded: premature meiotic progression and GV breakdown (GVBD)
activation of MII-arrested eggs by zinc sequestration with TPEN [4]: causes egg activation and resumption of cell cycle; also recorded: induce egg activation and embryo development
